These results are taken from publication PMC10397291, “Molecular pathway and structural mechanism of human oncochannel TRPV6 inhibition by the phytocannabinoid tetrahydrocannabivarin” (Nature Communications, 2023).

Entries after “also recorded” stand apart in the source; their conditions may differ.

One assay has as its system TRPV5. Details: method as in PMID 30170189. The following applies: at the tested doses; cited from earlier work.
Assay [1] has as its system TRPV6. The following applies: at the tested doses; cited from earlier work.
Another assay addresses T1, L490W mutant hTRPV6 (Homo sapiens, UniProt Q9H1D0, L530W).
T1 construct: Full-length wild-type or mutant human TRPV6 was expressed in HEK 293S cells as described above; expressed in transfected cells; host or cells: HEK 293S GnTI- (baculovirus/BacMam transduction)
T1 sequence (Q9H1D0 41-765 L530W limits assumed): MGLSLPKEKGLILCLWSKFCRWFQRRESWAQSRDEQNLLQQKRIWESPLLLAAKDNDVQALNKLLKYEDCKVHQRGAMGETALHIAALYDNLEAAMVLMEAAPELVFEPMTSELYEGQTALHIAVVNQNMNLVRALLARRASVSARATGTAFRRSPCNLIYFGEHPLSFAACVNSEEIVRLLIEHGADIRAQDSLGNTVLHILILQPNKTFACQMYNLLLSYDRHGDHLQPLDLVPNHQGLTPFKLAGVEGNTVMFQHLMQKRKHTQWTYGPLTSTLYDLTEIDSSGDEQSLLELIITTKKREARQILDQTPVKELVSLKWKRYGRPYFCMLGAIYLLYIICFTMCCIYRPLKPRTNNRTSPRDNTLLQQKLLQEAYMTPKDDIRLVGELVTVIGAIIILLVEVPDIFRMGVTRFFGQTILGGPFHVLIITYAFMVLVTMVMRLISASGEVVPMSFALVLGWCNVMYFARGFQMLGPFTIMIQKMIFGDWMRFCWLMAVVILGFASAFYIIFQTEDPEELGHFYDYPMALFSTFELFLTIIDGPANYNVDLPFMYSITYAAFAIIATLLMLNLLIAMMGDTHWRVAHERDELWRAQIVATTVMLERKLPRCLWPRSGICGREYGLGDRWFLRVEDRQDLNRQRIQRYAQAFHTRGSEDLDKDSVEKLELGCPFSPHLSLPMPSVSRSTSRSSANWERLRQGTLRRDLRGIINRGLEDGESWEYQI
Description: Fura-2 AM Ca2+ uptake, L490W mutant hTRPV6. The class given is cell-based. The following applies: L490W.

The subject of assay [2] is TRPV6. Details: method as in doi:10.1038/nature17975. The conditions noted are these: ref doi:10.1038/nature17975; cited from earlier work.
Assay [3] has as its target C-terminally truncated human TRPV6 (hTRPV6-CtD, residues 1–666 of wild-type channel) (human). Description: cryo-EM structure; hTRPV6-CtD in cNW30 nanodiscs with soybean lipids, 114 µM THCV; 150 mM NaCl, 20 mM Tris-HCl pH 8.0, 1 mM βME; C4 symmetry, 2.79 Å.
Assay [4] has as its target full-length human TRPV6 L490W mutant with C-terminal streptavidin affinity tag and eGFP (FSEC construct) (human). Description: SEC; fluorescence-detection SEC (FSEC) of eGFP-tagged channels; HEK cells solubilised in 1% DDM, 0.1% CHS, supernatant on Superose 6 10/300 GL in 1 mM DDM, 20 mM Tris-HCl pH 8.0, 150 mM NaCl, 1 mM βME. Background: SEC sorts molecules by how far they enter the pores of the column.

The target in assay [5] is full-length wild-type human TRPV6 with C-terminal streptavidin affinity tag and eGFP (FSEC construct) (human). The assay is described as above.

In the case of `C=C(C)[C@@H]1CCC(C)=C[C@H]1c1c(O)cc(CCCCC)cc1O` [CBD, cannabidiol], the “antagonist effect on TRPV5” value in the assay with TRPV5 is given as “ineffective”. In addition, the “antagonist effect on TRPV6” value in the assay on TRPV6 [1] is recorded as “Lack of CBD effect; also recorded: do not modulate; also recorded: ineffective”. Turning to `[Gd+3]` [Gd3+], the “block of Ca2+ uptake” value on L490W mutant hTRPV6 (100 µM Gd3+) is reported as “complete block”. Also, the “inhibition of calcium uptake” value at L490W mutant hTRPV6 (100 mM Gd3+ as printed, n = 3) is “complete inhibition”. The “block of the calcium uptake signal” value in the assay with TRPV6 [2] is “full block of the signal”. A word on the stoichiometry N: it is a count of units in the complex or per binding partner. “C-terminally truncated human TRPV6 (hTRPV6-CtD, residues 1–666 of wild-type channel) (domain or fragment)” yielded a stoichiometry N in assay [3] of 4. Compound “full-length human TRPV6 L490W mutant with C-terminal streptavidin affinity tag and eGFP (FSEC construct) (natural protein)” yielded a stoichiometry N in assay [4] of 4. “full-length wild-type human TRPV6 with C-terminal streptavidin affinity tag and eGFP (FSEC construct) (natural protein)” yielded a stoichiometry N in assay [5] of 4.
